In US20180201650A1 (BGI SHENZHEN, priority 2014, published 2018):
“Also recorded” adds a separate entry of the source.

Tested on: HVA calcium channel
Assay type: cell-based, rat

GICCVDDTCTTHSGCL [κ-CPTx-btl05]
current after loading (pA): −62.59 pA
current before loading (pA): −391.32 pA
inhibition of HVA calcium channel currents compared with Nifedipine (in words): inhibitory effect is higher than that of Nifedipine; also recorded: higher inhibition rate on HVA calcium channel currents than Nifedipine
inhibition rate (%) (10 μM): 83.24%
